Test results taken from patent US20060194815A1, “Methods and compositions for modulating serum cortisol levels” (priority 2003, published 2006).

Assays:
[1] = tested on: PKA; assay: dbcAMP-stimulated PKA activity in Y1 cells (PepTag assay); assay type: cell-based, mouse; parameters: dose or concentration left out as unconfirmed
Description: Y1 cells were cultured in 6-well plates (2×10^5 cells per well) and treated as described above for steroid biosynthesis. At the end of the incubation, cells were washed twice with PBS and proteins were extracted using an extraction buffer (25 mM tris-HCl pH 7.4, 0.5 mM EDTA, 0.5 mM EGTA, 10 mM-mercaptoethanol, 0.5 mM PMSF, 1 g/ml leupeptin, and 1 g/ml aprotinin). After centrifugation at 18,500 g for 15 minutes, the supernatants were kept for PKA activity assay. Samples were processed using the PepTag assay for non-radioactive detection of PKA activity following the manufacturer's recommendations (Promega Corporation, Madison, Wis.).

[2] = tested on: P-450SCC enzyme; assay: Immunoblot of P-450SCC enzyme expression in Y1 cells; assay type: cell-based, mouse; conditions: Y1 cell extracts
Description: At the end of the treatment protocol described above, Y1 cells at 90% confluency were washed 2 times with PBS, sonicated 15 seconds in extraction buffer and centrifuged at 18,500 g for 15 minutes at 4° C. Pellets were resuspended in ice-cold lysis buffer (1% Nonidet 40 in extraction buffer), sonicated briefly, and incubated on ice for 1 hour. After centrifugation (22,500 g×30 min, 4° C.), the supernatant was mixed in sample buffer 6× (0.27 M SDS, 0.6 M dithiothreitol, 0.18 M bromphenol blue in 7 ml of 0.5 M Tris-HCl, pH 6.8, and 3 ml glycerol) and boiled for 5 minutes. Proteins were subjected to SDS-PAGE (4-20% gradient SDS polyacrylamide gel) and electrophoretically transferred onto nitrocellulose membranes. The transblot sheets were blocked with 5% non fat dry milk in 25 mM Tris HCl, pH 7.5, 150 mM NaCl, and 0.1% Tween 20 overnight at 4° C. Membranes were then incubated with appropriately diluted primary antibodies 1:800 for anti-P-450SCC (Research Diagnostics Inc. Flanders, N.J.) and 1:200 for anti-StAR (Amri et al., 1996), and the reaction was detected by a peroxidase-conjugated secondary antibody (Santa Cruz Biotechnology, Santa Cruz, Calif.) and enhanced chemiluminescence (Amersham Life, Arlington Heights, Ill.). The densities of the appropriate bands were determined using the OptiQuant Acquisition & Analysis software (Packard BioScience).

[3] = tested on: HMG-CoA reductase; assay: HMG-CoA reductase activity in treated Y1 cells; assay type: cell-based, mouse; conditions: increasing concentrations
Description: (§1) Cells were washed twice with ice-cold PBS and incubated with ice-cold assay buffer (0.1M sucrose, 40 mM KH2PO4, 30 mM EDTA, 50 mM KCl, 5 mM DTT, 0.25% (v/v) of Brij 96, at pH 7.4) on ice for 20 minutes. After centrifugation for 3 minutes at 14000 g (4° C.) the supernatants were collected and used for HMG-CoA reductase activity assay. The total 150 l assay mixture contained 100-200 g protein and the NADPH-generating system (2.5 mM NADP, 20 mM glucose 6-phosphate and 20 U/ml glucose 6-phosphate dehydrogenase). The reaction was started by adding substrate (^14C-HMG-CoA, 0.1 Ci) and stopped after 45 minutes by adding 10-1 of HCl 6M. ^3H-mevalonolactone was also added to the samples as an extraction recovery marker. After an additional 30 minutes incubation time, to allow complete lactonization of the product, the mixture was centrifuged. The supernatant was applied to Bond-Elut NH2 column and eluted with 1 ml of toluene/acetone (3:1). The eluate was discarded and further 4 ml of toluene/acetone was applied to the column and collected in a scintillation vial for counting ^14C-mevalonate and 3H-mevalonolactone signals (Berkhout et al., 1990).

[4] = biological target: T1, HMG-CoA reductase (Mus musculus, UniProt Q01237); assay: Direct effect on HMG-CoA reductase activity in sonicated Y1 cell homogenates; assay type: biochemical; conditions: control 10.1±0.9
T1 construct: endogenous in cells; host or cells: Y1 mouse adrenal tumor cells (Brij 96 extract; sonicated homogenate for the direct test)
T1 sequence (Q01237 1-887): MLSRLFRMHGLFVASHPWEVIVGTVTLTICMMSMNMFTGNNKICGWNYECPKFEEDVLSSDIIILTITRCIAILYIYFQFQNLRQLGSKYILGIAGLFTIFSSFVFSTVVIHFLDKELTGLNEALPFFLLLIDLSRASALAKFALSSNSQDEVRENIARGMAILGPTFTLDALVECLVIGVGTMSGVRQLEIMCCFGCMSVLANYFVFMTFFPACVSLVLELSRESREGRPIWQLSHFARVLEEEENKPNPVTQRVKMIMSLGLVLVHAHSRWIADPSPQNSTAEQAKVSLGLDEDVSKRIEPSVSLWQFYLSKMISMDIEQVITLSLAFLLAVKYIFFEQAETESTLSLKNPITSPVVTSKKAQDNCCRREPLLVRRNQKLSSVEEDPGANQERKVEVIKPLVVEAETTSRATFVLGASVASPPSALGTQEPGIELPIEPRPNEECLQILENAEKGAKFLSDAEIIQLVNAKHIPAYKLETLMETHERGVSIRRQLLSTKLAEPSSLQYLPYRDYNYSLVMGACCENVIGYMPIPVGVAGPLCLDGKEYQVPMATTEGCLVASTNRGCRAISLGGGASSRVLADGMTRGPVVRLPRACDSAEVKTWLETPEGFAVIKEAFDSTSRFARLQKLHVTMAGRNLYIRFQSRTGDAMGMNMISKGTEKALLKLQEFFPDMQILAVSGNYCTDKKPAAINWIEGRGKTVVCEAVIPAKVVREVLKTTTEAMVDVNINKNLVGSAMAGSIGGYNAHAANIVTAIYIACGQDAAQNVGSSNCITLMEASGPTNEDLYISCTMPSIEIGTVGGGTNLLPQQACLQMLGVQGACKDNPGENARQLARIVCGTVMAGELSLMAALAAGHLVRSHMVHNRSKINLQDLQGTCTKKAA
Description: as §1
In separate experiments cells were disrupted by sonication and then treated with procaine. The direct effect of the treatment on HMG-CoA reductase activity in the homogenates was determined as described above.

With `CCN(CC)CCOC(=O)c1ccc(N)cc1` [procaine] the “dbcAMP-stimulated PKA activity” value [1] was “did not affect”, the “expression of the P-450SCC enzyme (immunoblot)” value [2] was “did not modify” and the “HMG-CoA reductase activity in treated cells” value [3] was “reduced in a dose-dependent manner”. For the same compound, the “HMG-CoA reductase activity in sonicated cells” value ([4]; 1 μM procaine) was 9.9±0.01 pmol/min/mg protein, the “HMG-CoA reductase activity in sonicated cells” value ([4]; 10 μM procaine) was 10.3±0.6 pmol/min/mg protein and the “HMG-CoA reductase activity in sonicated cells” value ([4]; 100 μM procaine) was 10.1±0.1 pmol/min/mg protein.
